Measurements from patent publication US9040725B2, “Benzocycloheptane and benzoxepine derivatives” (Janssen Pharmaceutica NV, priority 2008, dated 2015).
Where a name gives a salt, the structure may show the parent alone. Read-outs that look alike come from different tables or passages of the source. Values belong to the compound of their own block, whether it stands above or below them. Ends that are not written are not given here.

What was measured:
[1] = target: T1, GHS1A-receptor (Homo sapiens, UniProt Q92847); assay: Ghrelin-agonism in HEK293 cells (intracellular calcium, FLIPR); assay type: cell-based; details: HEK293 cells permanently transfected with GHS1A-receptor, calcium fluorescence (fluo-4 or Kit-3), EC50 in M, read-out: pEC50 (converted)
T1 construct: expressed in transfected cells; host or cells: HEK293
In short: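 HEK293 cells stably expressing GHS1A receptor loaded with fluo-4 or Kit-3 for 1 h at 37° C. Compound-triggered calcium fluorescence (ex 488, em >520 nm) recorded on FLIPR; response expressed relative to maximal ionomycin signal.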

[2] = test system: NMRI-mice; assay: Acceleration of gastric emptying and small intestinal propulsion in NMRI-mice; assay type: in vivo; details: Mus musculus, sc, lowest active dose, subcutaneous, 30 min before phenol red test meal
In short: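 Male NMRI mice (~25 g, fasted 20 h) received compound sc 30 min before a 0.3 ml gavaged chocolate nutridrink meal with phenol red (5 mg/ml). LAD is the lowest active dose per parameter.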

[3] = test system: GHS1A-r+/+ (WT) mice; assay: Acceleration of gastric emptying in wild type (GHS1A-r+/+, WT) mice; assay type: in vivo; details: 10 mg/kg subcutaneous 30 minutes before test meal, 15 minutes after meal
Description: (§1) FIG. 1 describes the gastric content (measured as extinction units of phenol red) remaining 15 minutes after administration of a phenol red containing test meal by oral gavage in GHS1A-r^+/+ (WT) and GHS1A-r^−/− (KO) mice pretreated with saline (Vehicle) or compound 3 (10 mg/kg SC) 30 minutes before the meal (individual data and mean, n=3).
(§2) Male NMRI-mice weighing around 25 gram were fasted for 20 h and had free access to drinking water. Test compounds were administered to the animals by subcutaneous route 30 min before they were given a test meal by oral gavage. The test meal consisted of 0.3 ml of a chocolate nutridrink solution (1.0 kcal/ml) containing phenol red marker (5 mg/ml). Fifteen min after administration of the meal, the mice were sacrificed by CO2 gas inhalation. The phenol red content remaining in the stomach (extracted from the stomach with NaOH) was determined at 557 nm in a spectrophotometer and expressed as extinction units. Small intestinal propulsion was determined as the distance traveled by the phenol red marker through the intestine and expressed as a percentage of total small intestinal length (from the pylorus to the ileo-cecal junction). […]

[4] = test system: GHS1A-r-/- (KO) mice; assay: Acceleration of gastric emptying in GHS1A-r-/- (KO) mice; assay type: in vivo; details: 10 mg/kg subcutaneous 30 minutes before test meal, 15 minutes after meal
Description: as §1, §2

[5] = test system: mice; assay: In house study: gastric emptying of a test meal after intravenous ghrelin in mice; assay type: in vivo; details: intravenous administration to mice; 95% confidence interval 0.058-0.174
Excerpt: (§3) These observations confirm that the gastrointestinal pro-kinetic properties of ghrelin-ligands are mediated by direct interaction with GHS1A-r. Small molecules showing affinity for the GHS1A-r and activating it are therefore anticipated to stimulate gastrointestinal motility in general, and gastric emptying in particular.

[6] = test system: transgenic mice with a deletion of GHS1A-r; assay: In house study: gastric emptying after ghrelin in transgenic mice with a deletion of GHS1A-r; assay type: in vivo; details: administered up to 2.5 mg/kg
Excerpt: as §3

[7] = active when >60% of animals had phenol red front beyond 85% of small intestinal length, read-out: LAD (mg/kg) Small intestinal propulsion
[8] = stomach content 15 min after meal, active when >60% of animals below 0.9 extinction units, read-out: LAD (mg/kg) Gastric emptying

T1 sequence (Q92847 whole entry): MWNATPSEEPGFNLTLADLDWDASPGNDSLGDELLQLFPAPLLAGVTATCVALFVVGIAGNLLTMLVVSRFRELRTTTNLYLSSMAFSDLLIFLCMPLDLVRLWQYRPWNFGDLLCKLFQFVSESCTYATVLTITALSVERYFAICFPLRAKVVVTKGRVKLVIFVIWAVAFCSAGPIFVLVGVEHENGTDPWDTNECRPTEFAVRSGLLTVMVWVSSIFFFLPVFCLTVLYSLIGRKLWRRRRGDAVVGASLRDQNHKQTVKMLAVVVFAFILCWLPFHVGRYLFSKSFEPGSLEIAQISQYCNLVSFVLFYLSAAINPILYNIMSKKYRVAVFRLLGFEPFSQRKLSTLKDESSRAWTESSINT

Compound: CN(C)CCCC1(O)c2ccccc2CCCC1c1ccc(Cl)cc1 (single isomer, unassigned) [Compound 3]
- EC50 [1]: 0.02 µM
- minimal effective dose [2, 7]: 0.63 mg/kg
- minimal effective dose [2, 8]: 0.63 mg/kg
- meal content remaining in the stomach versus vehicle [3]: emptied more than vehicle treated WT mice
- meal content remaining in the stomach versus vehicle [4]: no difference in remaining gastric content

Compound: Cc1ccc(C2CCCc3ccccc3C2(O)CCCN2CCCC2)cc1 (racemic) [Compound 28]
- EC50 [1]: 0.158 µM
- minimal effective dose [2, 7]: > 10 mg/kg
- minimal effective dose [2, 8]: > 10 mg/kg
- melting point: 139.8 °C

Compound: ghrelin (GSSFLSPEHQRVQQRKESKKPPAKLQPR; ends and bridges not checked; UniProt Q9UBU3 24-51, looked up) ["an endogenous peptide hormone ... the natural ligand for the type 1 growth hormone secretagogue receptor (GHS1A-r)"]
- ED50 stimulation of gastric emptying of a test meal [5]: 0.100 mg/kg
- effect on gastric emptying [6]: no effect

Compound: CC(=O)N1CCN(CCCC2(O)c3ccccc3CCCC2c2ccc(C)cc2)CC1 (racemic) [Compound 34]
- EC50 [1]: 3.16 µM
- melting point: 216.2 °C

Compound: Cc1ccc(C2CCCc3ccccc3C2(O)CCCN2CCN(C)CC2)cc1 (racemic) (as salt: oxalate) [Compound 33]
- melting point: 219 °C

Compound: CNCCCC1(O)c2ccccc2CCCC1c1cccc(C)c1 (racemic) (as salt: oxalate) [Compound 22]
- melting point: 137.4 °C

Compound: Oc1ccc([C@H]2CCCc3ccccc3[C@]2(O)CCCN2CCOCC2)cc1 (relative stereo) [Compound 7]
- melting point: 177.1 °C

Now from value to compound, other results behind:

- EC50 [1]: 6.31 µM
- melting point: 141.4 °C
Compound: CCN(CC)CCCC1(O)c2ccccc2CCCC1c1ccc(O)cc1 (racemic) [Compound 36]

- EC50 [1]: 7.94 µM
- melting point: 134.3 °C
Compound: CN(C)CCCC1(O)c2ccccc2CCCC1c1cncnc1 (racemic) [Compound 84]

- EC50 [1]: > 10 µM
- melting point: 165.1 °C
Compound: COc1ccc(C2CCCc3ccccc3C2(O)CCCN2CCN(C(C)=O)CC2)cc1 (racemic) [Compound 71]

- EC50 [1]: 0.1 µM
- melting point: 150.3 °C
Compound: CN(C)CCCC1(O)c2ccccc2CCCC1c1cnc2ccccc2c1 (racemic) [Compound 85]
- minimal effective dose [2, 7]: > 10 mg/kg
- minimal effective dose [2, 8]: > 10 mg/kg

- EC50 [1]: > 10 µM
- melting point: 153 °C
Compound: COc1cccc(C2CCCc3ccccc3C2(O)CCCN2CCN(C(C)=O)CC2)c1 (racemic) [Compound 63]

- EC50 [1]: 0.631 µM
- melting point: 115.2 °C
Compound: CC(C)NCCCC1(O)c2ccccc2CCCC1c1cnc2ccccc2c1 (racemic) [Compound 86]
